Laboratory results taken from patent US20200392116A1, “SUBSTITUTED HETEROCYCLES AS c-MYC TARGETING AGENTS” (NORTHWESTERN UNIVERSITY, priority 2019, published 2020).
Where two headings read alike, the source gives them in different places.

Columns and labels:
[1] = tested on: MYC transcriptional activity (c-Myc E-box-luciferase reporter, MycCap cells); assay: MYC E-box luciferase reporter assay; type: cell-based; details: Mus musculus, Myc-CaP, read-out: Ebox reporter: IC50
Protocol: To test the compounds, we evaluated the in silico hits in a MYC E-Box luciferase reporter assay to measure the effects of these compounds (referred to as Min-1 to Min-32) on MYC transcriptional activity. […] (See FIG. 2).
MycCap cells stably expressing luciferase with CMV promoter (MycCap-luc) or c-Myc E-box-luciferase reporter (MycCap Ebox-luc) were plated at 10000 cells per well in 96 well white-wall plate. Serial dilutions of 361 were treated next day. At 4 hours of treatment, luminescence signal was determined immediately after adding 150 μg/ml of Luciferin to the well. (See FIG. 12).

CMV reporter = CMV reporter assay (control reporter beside the Ebox reporter); type: cell-based

SMILES: Cn1nc(-c2cc(Cl)c(OCc3ccc(Cl)cc3)c(-c3ccc(Cl)c(C(F)(F)F)c3)c2O)cc1C(F)(F)F [NUCC-0202642]
- IC50 ([1]; given as numeric bound): > 50 µM
- IC50 (CMV reporter): > 50 µM

SMILES: Cn1nc(-c2ccc(OCc3ccc(Cl)cc3)cc2O)c(Oc2ccc(Cl)c(F)c2)c1C(F)(F)F [NUCC-0202643]
- IC50 ([1]; class symbols): < 5 µM
- IC50 (CMV reporter): > 50 µM

SMILES: Cn1nc(-c2ccc(OCc3ccc(Cl)cc3)c(-c3ccc(Cl)c(C(F)(F)F)c3)c2O)cc1O [NUCC-0202644]
- IC50 ([1]; class symbols): 10 to 50 µM
- IC50 (CMV reporter): > 50 µM

SMILES: Cn1nc(C(F)(F)F)cc1-c1cc(Cl)c(OCc2ccc(Cl)cc2)c(-c2ccc(Cl)c(C(F)(F)F)c2)c1O [NUCC-0202648]
- IC50 ([1]; class symbols): < 5 µM
- IC50 (CMV reporter): > 50 µM

SMILES: Oc1c(-c2cc(C(F)(F)F)n[nH]2)cc(Cl)c(OCc2ccc(Cl)cc2)c1-c1ccc(Cl)c(C(F)(F)F)c1 [NUCC-0202649]
- IC50 ([1]; class symbols): < 5 µM
- IC50 (CMV reporter): > 50 µM

SMILES: Cn1nc(C(F)(F)F)cc1-c1ccc(OCc2ccc(Cl)cc2)c(-c2ccc(Cl)c(C(F)(F)F)c2)c1Cl [NUCC-0202650]
- IC50 ([1]; given as numeric bound): > 50 µM
- IC50 (CMV reporter): > 50 µM

SMILES: COc1c(C(F)(F)F)nn(C)c1-c1ccc(OCc2ccc(Cl)cc2)cc1O [NUCC-0202651]
- IC50 ([1]; class symbols): 5 to 10 µM
- IC50 (CMV reporter): > 50 µM

SMILES: COc1c(-c2ccc(OCc3ccc(Cl)cc3)cc2O)nn(C)c1C(F)(F)F [NUCC-0202652]
- IC50 ([1]; given as numeric bound): > 50 µM
- IC50 (CMV reporter): > 50 µM

SMILES: Cn1nc(C(F)(F)F)cc1-c1cnc(OCc2ccc(Cl)cc2)c(-c2ccc(Cl)c(C(F)(F)F)c2)c1O [NUCC-0202686]
- IC50 ([1]; class symbols): < 5 µM
- IC50 (CMV reporter): 31 µM

SMILES: Oc1c(-c2cc(C(F)(F)F)n[nH]2)cc(F)c(OCc2ccc(Cl)cc2)c1-c1ccc(Cl)c(C(F)(F)F)c1 [NUCC-0202687]
- IC50 ([1]; class symbols): < 5 µM
- IC50 (CMV reporter): > 50 µM

SMILES: Cn1nc(C(F)(F)F)cc1-c1ccc(N(Cc2ccc(Cl)cc2)C(=O)c2cncc(C(F)(F)F)c2)cc1O [NUCC-0202688]
- IC50 ([1]; class symbols): 5 to 10 µM
- IC50 (CMV reporter): > 50 µM

SMILES: Cn1nc(-c2ccc(N(Cc3ccc(Cl)cc3)C(=O)c3cncc(C(F)(F)F)c3)cc2O)cc1C(F)(F)F [NUCC-0202689]
- IC50 ([1]; given as numeric bound): > 50 µM
- IC50 (CMV reporter): > 50 µM

SMILES: Cn1nc(C(F)(F)F)cc1-c1ccc(NC(=O)c2ccc(Cl)c(C(F)(F)F)c2)cc1O [NUCC-0202690]
- IC50 ([1]; class symbols): < 5 µM
- IC50 (CMV reporter): > 50 µM

SMILES: Cn1nc(-c2ccc(NC(=O)c3ccc(Cl)c(C(F)(F)F)c3)cc2O)cc1C(F)(F)F [NUCC-0202691]
- IC50 ([1]; given as numeric bound): > 50 µM
- IC50 (CMV reporter): > 50 µM

SMILES: Cn1nc(C(F)(F)F)cc1-c1ccc(N(Cc2ccc(Cl)cc2)C(=O)c2cncc(F)c2)cc1O [NUCC-0202692]
- IC50 ([1]; class symbols): 5 to 10 µM
- IC50 (CMV reporter): > 50 µM

SMILES: Cn1nc(C(F)(F)F)cc1-c1ccc(N(Cc2ccc(Cl)cc2)C(=O)c2ccc3nccn3c2)cc1O [NUCC-0202693]
- IC50 ([1]; class symbols): < 5 µM
- IC50 (CMV reporter): > 50 µM

SMILES: Cn1nc(-c2ccc(N(Cc3ccc(Cl)cc3)C(=O)c3ccc(Cl)cc3)cc2O)cc1C(F)(F)F [NUCC-0202694]
- IC50 ([1]; given as numeric bound): > 50 µM
- IC50 (CMV reporter): > 50 µM

SMILES: COc1cccc(C(=O)N(Cc2ccc(Cl)cc2)c2ccc(-c3cc(C(F)(F)F)n(C)n3)c(O)c2)c1 [NUCC-0202695]
- IC50 ([1]; given as numeric bound): > 50 µM
- IC50 (CMV reporter): > 50 µM

SMILES: Cn1nc(-c2ccc(N(Cc3ccc(Cl)cc3)C(=O)c3ccnc(C(F)(F)F)c3)cc2O)cc1C(F)(F)F [NUCC-0202696]
- IC50 ([1]; given as numeric bound): > 50 µM
- IC50 (CMV reporter): > 50 µM

SMILES: Cn1nc(-c2ccc(N(Cc3ccc(Cl)cc3)C(=O)c3cncc(F)c3)cc2O)cc1C(F)(F)F [NUCC-0202697]
- IC50 ([1]; given as numeric bound): > 50 µM
- IC50 (CMV reporter): > 50 µM

SMILES: COc1cccc(C(=O)N(Cc2ccc(Cl)cc2)c2ccc(-c3cc(C(F)(F)F)nn3C)c(O)c2)c1 [NUCC-0202698]
- IC50 ([1]; class symbols): 5 to 10 µM
- IC50 (CMV reporter): > 50 µM

SMILES: Cn1nc(-c2ccc(N(Cc3ccc(Cl)cc3)C(=O)c3cccc(Cl)c3)cc2O)cc1C(F)(F)F [NUCC-0202699]
- IC50 ([1]; given as numeric bound): > 50 µM
- IC50 (CMV reporter): > 50 µM

SMILES: Cn1nc(C(F)(F)F)cc1-c1ccc(N(Cc2ccc(Cl)cc2)C(=O)c2ccnc(C(F)(F)F)c2)cc1O [NUCC-0202700]
- IC50 ([1]; class symbols): < 5 µM
- IC50 (CMV reporter): > 50 µM

SMILES: Cn1nc(-c2ccc(N(Cc3ccc(Cl)cc3)C(=O)c3ccc(F)cc3)cc2O)cc1C(F)(F)F [NUCC-0202701]
- IC50 ([1]; given as numeric bound): > 50 µM
- IC50 (CMV reporter): > 50 µM

SMILES: Cn1nc(-c2ccc(N(Cc3ccc(Cl)cc3)C(=O)c3ccccc3Cl)cc2O)cc1C(F)(F)F [NUCC-0202702]
- IC50 ([1]; given as numeric bound): > 50 µM
- IC50 (CMV reporter): > 50 µM

SMILES: Cn1nc(C(F)(F)F)cc1-c1ccc(N(Cc2ccc(Cl)cc2)C(=O)c2ccc(Cl)cc2)cc1O [NUCC-0202703]
- IC50 ([1]; class symbols): < 5 µM
- IC50 (CMV reporter): > 50 µM

SMILES: Cn1nc(C(F)(F)F)cc1-c1ccc(N(Cc2ccc(Cl)cc2)C(=O)c2cccc(Cl)c2)cc1O [NUCC-0202704]
- IC50 ([1]; class symbols): < 5 µM
- IC50 (CMV reporter): > 50 µM

SMILES: Cn1nc(C(F)(F)F)cc1-c1ccc(N(Cc2ccc(Cl)cc2)C(=O)c2cccc(S(C)(=O)=O)c2)cc1O [NUCC-0202705]
- IC50 ([1]; class symbols): < 5 µM
- IC50 (CMV reporter): > 50 µM

SMILES: Cn1nc(C(F)(F)F)cc1-c1ccc(N(Cc2ccc(Cl)cc2)C(=O)c2ccc(F)c(F)c2)cc1O [NUCC-0202706]
- IC50 ([1]; class symbols): < 5 µM
- IC50 (CMV reporter): > 50 µM

SMILES: Cn1nc(-c2ccc(N(Cc3ccc(Cl)cc3)C(=O)c3ccc(F)c(F)c3)cc2O)cc1C(F)(F)F [NUCC-0202707]
- IC50 ([1]; given as numeric bound): > 50 µM
- IC50 (CMV reporter): > 50 µM

SMILES: Cn1nc(-c2ccc(N(Cc3ccc(Cl)cc3)C(=O)c3ccc(C(F)(F)F)cc3Cl)cc2O)cc1C(F)(F)F [NUCC-0202708]
- IC50 ([1]; given as numeric bound): > 50 µM
- IC50 (CMV reporter): > 50 µM

SMILES: Cn1nc(C(F)(F)F)cc1-c1ccc(N(Cc2ccc(Cl)cc2)C(=O)c2ccc(Cl)cc2C(F)(F)F)cc1O [NUCC-0202709]
- IC50 ([1]; class symbols): 5 to 10 µM
- IC50 (CMV reporter): > 50 µM

SMILES: Cn1nc(-c2ccc(N(Cc3ccc(Cl)cc3)C(=O)c3ccc(Cl)cc3C(F)(F)F)cc2O)cc1C(F)(F)F [NUCC-0202710]
- IC50 ([1]; given as numeric bound): > 50 µM
- IC50 (CMV reporter): > 50 µM

SMILES: Cn1nc(C(F)(F)F)cc1-c1ccc(N(Cc2ccc(Cl)cc2)C(=O)c2ccc(F)cc2)cc1O [NUCC-0202711]
- IC50 ([1]; class symbols): 5 to 10 µM
- IC50 (CMV reporter): > 50 µM

SMILES: Cn1nc(C(F)(F)F)cc1-c1ccc(N(Cc2ccc(Cl)cc2)C(=O)c2ccccc2Cl)cc1O [NUCC-0202712]
- IC50 ([1]; class symbols): 10 to 50 µM
- IC50 (CMV reporter): > 50 µM

SMILES: Cn1nc(C(F)(F)F)cc1-c1ccc(N(Cc2ccc(Cl)cc2)C(=O)c2ccc(C(F)(F)F)cc2)cc1O [NUCC-0202713]
- IC50 ([1]; class symbols): 5 to 10 µM
- IC50 (CMV reporter): > 50 µM

SMILES: Cn1nc(-c2ccc(N(Cc3ccc(Cl)cc3)C(=O)c3ccc(C(F)(F)F)cc3)cc2O)cc1C(F)(F)F [NUCC-0202714]
- IC50 ([1]; given as numeric bound): > 50 µM
- IC50 (CMV reporter): > 50 µM

SMILES: Cn1nc(C(F)(F)F)cc1-c1ccc(N(Cc2ccc(Cl)cc2)C(=O)c2ccccc2F)cc1O [NUCC-0202715]
- IC50 ([1]; class symbols): 5 to 10 µM
- IC50 (CMV reporter): > 50 µM

SMILES: Cn1nc(-c2ccc(N(Cc3ccc(Cl)cc3)C(=O)c3ccccc3F)cc2O)cc1C(F)(F)F [NUCC-0202716]
- IC50 ([1]; given as numeric bound): > 50 µM
- IC50 (CMV reporter): > 50 µM

SMILES: COc1ccc(C(=O)N(Cc2ccc(Cl)cc2)c2ccc(-c3cc(C(F)(F)F)nn3C)c(O)c2)cc1 [NUCC-0202717]
- IC50 ([1]; class symbols): 5 to 10 µM
- IC50 (CMV reporter): > 50 µM

SMILES: COc1ccc(C(=O)N(Cc2ccc(Cl)cc2)c2ccc(-c3cc(C(F)(F)F)n(C)n3)c(O)c2)cc1 [NUCC-0202718]
- IC50 ([1]; given as numeric bound): > 50 µM
- IC50 (CMV reporter): > 50 µM

SMILES: Cn1nc(-c2ccc(N(Cc3ccc(Cl)cc3)C(=O)c3ccccc3C(F)(F)F)cc2O)cc1C(F)(F)F [NUCC-0202719]
- IC50 ([1]; given as numeric bound): > 50 µM
- IC50 (CMV reporter): > 50 µM

SMILES: Cn1nc(C(F)(F)F)cc1-c1ccc(N(Cc2ccc(Cl)cc2)C(=O)c2ccc(C(F)(F)F)cc2Cl)cc1O [NUCC-0202720]
- IC50 ([1]; class symbols): 5 to 10 µM
- IC50 (CMV reporter): > 50 µM

SMILES: Cn1nc(-c2ccc(N(Cc3ccc(Cl)cc3)C(=O)c3cccc(S(C)(=O)=O)c3)cc2O)cc1C(F)(F)F [NUCC-0202721]
- IC50 ([1]; given as numeric bound): > 50 µM
- IC50 (CMV reporter): > 50 µM

SMILES: Cn1nc(-c2ccc(N(Cc3ccc(Cl)cc3)C(=O)c3cncc(C#N)c3)cc2O)cc1C(F)(F)F [NUCC-0202722]
- IC50 ([1]; given as numeric bound): > 50 µM
- IC50 (CMV reporter): > 50 µM

SMILES: Cn1nc(C(F)(F)F)cc1-c1ccc(N(Cc2ccc(Cl)cc2)C(=O)c2ccccc2C(F)(F)F)cc1O [NUCC-0202723]
- IC50 ([1]; class symbols): 5 to 10 µM
- IC50 (CMV reporter): > 50 µM

SMILES: Cn1nc(C(F)(F)F)cc1-c1ccc(N(Cc2ccc(Cl)cc2)C(=O)c2cncc(C#N)c2)cc1O [NUCC-0202724]
- IC50 ([1]; class symbols): 5 to 10 µM
- IC50 (CMV reporter): > 50 µM

SMILES: Cn1nc(-c2ccc(N(Cc3ccc(Cl)cc3)C(=O)c3ccc4nccn4c3)cc2O)cc1C(F)(F)F [NUCC-0202725]
- IC50 ([1]; class symbols): 10 to 50 µM
- IC50 (CMV reporter): > 50 µM
